These are literature values, as cited in patent US10265547B2, “Internal ultrasound gel” (SmileSonica Inc., priority 2012, dated 2019).

SMILES strings stand for the structures.

The conditions of series [1]: average adult of 70 kg.
The subject of series [2] is lactobacillus bulgaricus. The conditions noted are these: Makinen and Soderling 1981.
Series [3] has as its system salmonella typhi. The conditions noted are these: Makinen and Soderling 1981.
In series [4] the test system is Streptococcus pneumonia. The conditions noted are these: nasopharyngeal flora, Kontiokari et al. 1995.
Series [5] concerns saccharomyces cerevisiae. The conditions noted are these: Makinen and Soderling 1981.
Series [6] relates to Escherichia coli. The conditions noted are these: Makinen and Soderling 1981.
The subject of series [7] is clostridium butyricum. The conditions noted are these: Makinen and Soderling 1981.
Series [8] deals with Streptococcus mutans. The conditions noted are these: xylitol in the range of 0.1% to 5%.

For the molecule `C/C=C/C=C/C(=O)[O-].[K+]` [potassium sorbate], the “acceptable daily ingestion intake” value in series [1] is 875 mg daily.

Turning to `OC[C@@H](O)[C@H](O)[C@@H](O)CO` [xylitol], the growth inhibition entry in series [2], in series [3], in series [4], in series [5], in series [6] and in series [7] was “inhibiting the growth” in each case. Further, in series [8], the “reduction of oral bacterial flora” value was “reduce oral bacterial flora”.
